Source: US6358885B1, “Substituted phenylheterocyclic herbicides” (Mississippi State University, priority 1992, dated 2002)

Tests used:
bedstraw = test: Test C preemergence/postemergence greenhouse plant response rating 0 to 100; assay type: in vivo, Galium aparine; conditions: for Plant response rating, Bedstraw: 125 g/ha, 0 to 100 scale
How it was run: (§1)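 Compounds in non-phytotoxic solvent applied preemergence to sandy loam one day after planting, postemergence at the 1–4 leaf stage, or to ~2.5 cm floodwater over silt loam.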

lambsquarters = test: Test B preemergence/postemergence greenhouse plant response rating 0 to 10; assay type: in vivo, Chenopodium album; conditions: for Plant response rating, Lambsquarter: 0 to 10 scale
How it was run: (§2)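 Postemergence treatment of plants two to eighteen cm tall ran alongside preemergence treatment of planted seed, each using compound in a non-phytotoxic solvent.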

cheatgrass = test: as above; assay type: in vivo, Bromus secalinus; conditions: for Plant response rating, Cheatgrass: 0 to 10 scale
How it was run: as §2

wild oat = test: as above; assay type: in vivo, Avena fatua; conditions: for Plant response rating, Wild oat: 0 to 10 scale
How it was run: as §2

sorghum = test: Test C preemergence/postemergence greenhouse plant response rating 0 to 100; assay type: in vivo, Sorghum bicolor; conditions: for Plant response rating, Sorghum: 125 g/ha, 0 to 100 scale
How it was run: as §1

cotton [1] = test: as above; assay type: in vivo, Gossypium hirsutum; conditions: for Plant response rating, Cotton: 125 g/ha, 0 to 100 scale
How it was run: as §1

cotton [2] = test: Test B preemergence/postemergence greenhouse plant response rating 0 to 10; assay type: in vivo, Gossypium hirsutum; conditions: for Plant response rating, Cotton: 0 to 10 scale
How it was run: as §2

giant foxtail = test: Test C preemergence/postemergence greenhouse plant response rating 0 to 100; assay type: in vivo, Setaria faberii; conditions: for Plant response rating, Giant foxtail: 125 g/ha, 0 to 100 scale
How it was run: as §1

duck salad = test: Test C flood test plant response rating 0 to 100; assay type: in vivo, Heteranthera limosa
How it was run: as §1

crabgrass = test: Test C preemergence/postemergence greenhouse plant response rating 0 to 100; assay type: in vivo, Digitaria sanguinalis; conditions: POSTEMERGENCE
How it was run: as §1

CCOCOc1cc(-c2nn3c(c2Cl)CCCC3)c(F)cc1Cl [Compound 59]
Plant response rating, Bedstraw (bedstraw; POSTEMERGENCE): 100 | Plant response rating (0 to 100), Bedstraw (bedstraw; POSTEMERGENCE, Rate 2 g/ha): 50 | Plant response rating, Bedstraw (bedstraw; PREEMERGENCE): 70 | Plant response rating (0 to 100), Bedstraw (bedstraw; PREEMERGENCE, Rate 2 g/ha): 0 | Plant response rating (0 to 100), Bedstraw (bedstraw; Rate 8 g/ha, POSTEMERGENCE): 75 | Plant response rating (0 to 100), Bedstraw (bedstraw; Rate 8 g/ha, PREEMERGENCE): 0 | Plant response rating (0 to 100), Bedstraw (bedstraw; Rate 31 g/ha, POSTEMERGENCE): 100 | Plant response rating (0 to 100), Bedstraw (bedstraw; Rate 31 g/ha, PREEMERGENCE): 50 | Plant response rating, Lambsquarter (lambsquarters; POSTEMERGENCE, Rate 50 g/ha): 10 | Plant response rating, Lambsquarter (lambsquarters; PREEMERGENCE, Rate 50 g/ha): 10 | Plant response rating (0 to 10 scale), Lambsquarter (lambsquarters; PREEMERGENCE, Rate 200 g/ha): 10 | Plant response rating, Lambsquarter (lambsquarters; Rate 200 g/ha, POSTEMERGENCE): 10 | Plant response rating, Cheatgrass (cheatgrass; POSTEMERGENCE, Rate 50 g/ha): 4 | Plant response rating, Cheatgrass (cheatgrass; PREEMERGENCE, Rate 50 g/ha): 4 | Plant response rating (0 to 10 scale), Cheatgrass (cheatgrass; PREEMERGENCE, Rate 200 g/ha): 5 | Plant response rating, Cheatgrass (cheatgrass; Rate 200 g/ha, POSTEMERGENCE): 6 | Plant response rating, Wild oat (wild oat; POSTEMERGENCE, Rate 50 g/ha): 7 | Plant response rating, Wild oat (wild oat; PREEMERGENCE, Rate 50 g/ha): 2 | Plant response rating (0 to 10 scale), Wild oat (wild oat; PREEMERGENCE, Rate 200 g/ha): 7 | Plant response rating, Wild oat (wild oat; Rate 200 g/ha, POSTEMERGENCE): 7 | Plant response rating, Sorghum (sorghum; POSTEMERGENCE): 70 | Plant response rating (0 to 100), Sorghum (sorghum; POSTEMERGENCE, Rate 2 g/ha): 20 | Plant response rating, Sorghum (sorghum; PREEMERGENCE): 20 | Plant response rating (0 to 100), Sorghum (sorghum; PREEMERGENCE, Rate 2 g/ha): 0 | Plant response rating (0 to 100), Sorghum (sorghum; Rate 8 g/ha, POSTEMERGENCE): 40 | Plant response rating (0 to 100), Sorghum (sorghum; Rate 8 g/ha, PREEMERGENCE): 0 | Plant response rating (0 to 100), Sorghum (sorghum; Rate 31 g/ha, POSTEMERGENCE): 60 | Plant response rating (0 to 100), Sorghum (sorghum; Rate 31 g/ha, PREEMERGENCE): 10 | Plant response rating, Cotton (cotton [1]; POSTEMERGENCE): 100 | Plant response rating (0 to 100), Cotton (cotton [1]; POSTEMERGENCE, Rate 2 g/ha): 95 | Plant response rating, Cotton (cotton [1]; PREEMERGENCE): 50 | Plant response rating (0 to 100), Cotton (cotton [1]; PREEMERGENCE, Rate 2 g/ha): 0 | Plant response rating (0 to 100), Cotton (cotton [1]; Rate 8 g/ha, POSTEMERGENCE): 100 | Plant response rating (0 to 100), Cotton (cotton [1]; Rate 8 g/ha, PREEMERGENCE): 0 | Plant response rating (0 to 100), Cotton (cotton [1]; Rate 31 g/ha, POSTEMERGENCE): 100 | Plant response rating (0 to 100), Cotton (cotton [1]; Rate 31 g/ha, PREEMERGENCE): 10 | Plant response rating, Cotton (cotton [2]; POSTEMERGENCE, Rate 50 g/ha): 10 | Plant response rating, Cotton (cotton [2]; PREEMERGENCE, Rate 50 g/ha): 4 | Plant response rating (0 to 10 scale), Cotton (cotton [2]; PREEMERGENCE, Rate 200 g/ha): 7 | Plant response rating, Cotton (cotton [2]; Rate 200 g/ha, POSTEMERGENCE): 10 | Plant response rating, Giant foxtail (giant foxtail; POSTEMERGENCE): 90 | Plant response rating (0 to 100), Giant foxtail (giant foxtail; POSTEMERGENCE, Rate 2 g/ha): 20 | Plant response rating, Giant foxtail (giant foxtail; PREEMERGENCE): 90 | Plant response rating (0 to 100), Giant foxtail (giant foxtail; PREEMERGENCE, Rate 2 g/ha): 0 | Plant response rating (0 to 100), Giant foxtail (giant foxtail; Rate 8 g/ha, POSTEMERGENCE): 40 | Plant response rating (0 to 100), Giant foxtail (giant foxtail; Rate 8 g/ha, PREEMERGENCE): 10 | Plant response rating (0 to 100), Giant foxtail (giant foxtail; Rate 31 g/ha, POSTEMERGENCE): 70 | Plant response rating (0 to 100), Giant foxtail (giant foxtail; Rate 31 g/ha, PREEMERGENCE): 50 | Plant response rating (0 to 100), Duck salad (duck salad; POSTEMERGENCE section, flood test, Rate 2 g/ha): 0 | Plant response rating (0 to 100), Duck salad (duck salad; Rate 8 g/ha, under POSTEMERGENCE head (flood test species)): 0 | Plant response rating (0 to 100), Duck salad (duck salad; Rate 31 g/ha, under POSTEMERGENCE head (flood test species)): 40 | Plant response rating Duck salad (duck salad; flood test species listed under POSTEMERGENCE, 125 g/ha, 0 to 100 scale): 80 | Plant response rating, Crabgrass (crabgrass; 125 g/ha, 0 to 100 scale): 70 | Plant response rating (0 to 100), Crabgrass (crabgrass; Rate 2 g/ha): 10
